Laboratory results taken from US20080287445A1, “Prokineticin 2 receptor antagonists” (priority 2005, published 2008).
Several values for one entry are separate records, joined by “and”; a condition that tells them apart may be missing. Identical values can stand only once.

Molecular target: T1, GPR73 (prokineticin 1 receptor) (Homo sapiens, UniProt Q8TCW9)
T1 construct: expressed in transfected cells; host or cells: HEK 293
Experiment: PK1 functional assay: Ca2+ mobilization screening for PK1 antagonists on the FLIPR
Format: cell-based
Conditions: HEK 293 GPR73 cells, multiple values = multiple testing; for inhibition at 10 µM: HEK293, 10 μM compound, read-out: Ca^2+ Mobilization % Inh @ 10 μM; for IC50: PK1 ligand preparation at its EC50, read-out: Ca^2+ Mobilization IC50; for Ca^2+ Mobilization % Inh @ 10 μM: 10 μM compound
Summary of the method: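 HEK293 cells expressing human GPR73 were loaded with Calcium Plus dye, then on FLIPR given compound for 4 min 15 s before PK1 ligand at its predetermined EC50. Baseline-subtracted fluorescence over 1 min 45 s gave percent inhibition versus maximal signal; IC50 fitted.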

T1 sequence (Q8TCW9 whole entry, species assumed): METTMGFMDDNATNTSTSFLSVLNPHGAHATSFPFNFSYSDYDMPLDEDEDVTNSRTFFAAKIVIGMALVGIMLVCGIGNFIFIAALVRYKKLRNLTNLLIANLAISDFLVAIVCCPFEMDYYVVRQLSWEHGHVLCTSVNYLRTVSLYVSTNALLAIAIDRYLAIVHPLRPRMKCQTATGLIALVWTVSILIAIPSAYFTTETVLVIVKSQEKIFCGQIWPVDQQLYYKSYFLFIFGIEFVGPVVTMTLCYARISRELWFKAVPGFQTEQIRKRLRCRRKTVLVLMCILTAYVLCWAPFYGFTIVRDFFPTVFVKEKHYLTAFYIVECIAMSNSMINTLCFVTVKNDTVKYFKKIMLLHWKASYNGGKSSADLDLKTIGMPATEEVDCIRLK

Row | inhibition at 10 µM | IC50 | Ca^2+ Mobilization % Inh @ 10 μM | Structure (SMILES)
1 | 91% | 240 nM |  | COc1ccc(Cn2c(=O)nc(NCc3cnc(C)cc3C)n(Cc3ccc(N4C(=O)c5ccccc5C4=O)cc3)c2=O)cc1 [Cpd 152]
2 | 81% | 703 nM |  | COC(=O)CCCn1c(NCc2cnc(C)cc2C)nc(=O)n(Cc2ccc(OC)cc2)c1=O [Cpd 153]
3 | 31% | > 10000 nM |  | Cc1cc(C)c(CNc2nc(=O)n(Cc3ccc(I)cc3)c(=O)n2Cc2ccc(OC(F)F)cc2)cn1 [Cpd 159]
4 | 71% | 628 nM |  | Cc1cc(C)c(CNc2nc(=O)n(Cc3ccc(F)cc3)c(=O)n2Cc2ccc(OC(F)F)cc2)cn1 [Cpd 160, 1-(4-Difluoromethoxy-benzyl)-6-[(4,6-dimethyl-pyridin-3-ylmethyl)-amino]-3-(4-fluoro-benzyl)-1H-[1,3,5]triazine-2,4-dione]
5 | 53% | 4780 nM |  | Cc1ccc(Cn2c(=O)nc(NCc3cnc(C)cc3C)n(Cc3ccc(OC(F)F)cc3)c2=O)cc1 [Cpd 161]
6 | 31% | > 10000 nM |  | Cc1cc(C)c(CNc2nc(=O)n(Cc3ccc(C(F)(F)F)cc3)c(=O)n2Cc2ccc(OC(F)F)cc2)cn1 [Cpd 162]
7 | 38% | > 10000 nM |  | Cc1cc(C)c(CNc2nc(=O)n(Cc3ccc(OC(F)F)cc3)c(=O)n2Cc2ccc(OC(F)F)cc2)cn1 [Cpd 163]
8 | 64% | 2010 nM |  | Cc1cc(C)c(CNc2nc(=O)n(Cc3ccc(C#N)cc3)c(=O)n2Cc2ccc(OC(F)F)cc2)cn1 [Cpd 164]
9 | 52% | 6150 nM |  | COC(=O)c1ccc(Cn2c(=O)nc(NCc3cnc(C)cc3C)n(Cc3ccc(OC(F)F)cc3)c2=O)cc1 [Cpd 165]
10 | 73% | 1700 nM |  | Cc1cc(C)c(CNc2nc(=O)n(CCOc3ccccc3)c(=O)n2Cc2ccc(OC(F)F)cc2)cn1 [Cpd 166]
11 | 65% | 2620 nM |  | Cc1cc(C)c(CNc2nc(=O)n(CCOc3ccc(F)cc3)c(=O)n2Cc2ccc(OC(F)F)cc2)cn1 [Cpd 167]
12 | 88% | 515 nM |  | COc1ccc(Cn2c(=O)nc(NCc3cnc(C)cc3C)n(Cc3cccc4cc[nH]c34)c2=O)cc1 [Cpd 172]
13 | 79% | 640 nM |  | CSc1ccc(Cn2c(=O)nc(NCc3cnc(C)cc3C)n(Cc3ccc(OC(F)F)cc3)c2=O)cc1 [Cpd 177]
14 | 46% | 8650 nM |  | Cc1cc(C)c(CNc2nc(=O)n(Cc3ccc4occc4c3)c(=O)n2Cc2ccc(OC(F)F)cc2)cn1 [Cpd 178]
15 | 61% | 4530 nM |  | Cc1cc(C)c(CNc2nc(=O)n(Cc3ccc4c(c3)CCO4)c(=O)n2Cc2ccc(OC(F)F)cc2)cn1 [Cpd 179]
16 | 37% | > 10000 nM |  | Cc1cc(C)c(CNc2nc(=O)n(Cc3ccccc3C#N)c(=O)n2Cc2ccc(OC(F)F)cc2)cn1 [Cpd 180]
17 | 61% | 3730 nM |  | Cc1cc(C)c(CNc2nc(=O)n(Cc3ccc(O)cc3)c(=O)n2Cc2ccc(OC(F)F)cc2)cn1 [Cpd 181]
18 | 55% | 8510 nM |  | CC(=O)Oc1ccc(Cn2c(=O)nc(NCc3cnc(C)cc3C)n(Cc3ccc(OC(F)F)cc3)c2=O)cc1 [Cpd 182]
19 | 50% | 8370 nM |  | Cc1cc(C)c(CNc2nc(=O)n(Cc3ccc(CO)cc3)c(=O)n2Cc2ccc(OC(F)F)cc2)cn1 [Cpd 191]
20 | 80% | 146 nM and 1060 nM | 82% | Cc1cc(C)c(CNc2nc(=O)n(Cc3ccc4c(c3)nnn4C)c(=O)n2Cc2ccc(OC(F)F)cc2)cn1 [Cpd 192]
21 |  | > 10000 nM | 39% | COc1ccc(Cn2c(=O)nc(NCc3cnc(C)cc3C)n(Cc3ccc(OC(F)F)cc3)c2=O)cc1 [Cpd 193]
22 | 49% | 6220 nM |  | Cc1cc(C)c(CNc2nc(=O)n(Cc3ccc(C(N)=O)cc3)c(=O)n2Cc2ccc(OC(F)F)cc2)cn1 [Cpd 194]
23 | 84% | 451 nM |  | Cc1cc(C)c(CNc2nc(=O)n(Cc3ccc4snnc4c3)c(=O)n2Cc2ccc(OC(F)F)cc2)cn1 [Cpd 196]
24 | 54% | 2840 nM |  | COCCCCCn1c(=O)nc(NCc2cnc(C)cc2C)n(Cc2ccc(OC)cc2)c1=O [Cpd 197]
25 | 64% | 1040 nM |  | COCCCCCn1c(=O)nc(NCc2cnc(C)cc2C)n(Cc2ccc(OC(F)F)cc2)c1=O [Cpd 198]
26 | 95% | 327 nM |  | COc1ccc(Cn2c(NCc3cnccc3C)nc(=O)n(Cc3ccc(OC)cc3)c2=O)cc1 [Cpd 201]

Further lines, the molecule ahead of its results:

Row | Structure (SMILES) | inhibition at 10 µM | IC50 | Ca^2+ Mobilization % Inh @ 10 μM
27 | COc1ccc(Cn2c(=O)nc(NCc3cccnc3N)n(Cc3ccc(Cl)c(Cl)c3)c2=O)cc1 [Cpd 151] | 60% | 2400 nM | 
28 | COc1ccc(Cn2c(NCCc3ccccn3)nc(=O)n(Cc3ccc(OC)cc3)c2=O)cc1 [Cpd 154] | 79% | 657 nM and 952 nM | 80%
29 | COc1ccc(Cn2c(=O)nc(NCc3c(C)cc(C)nc3N)n(Cc3cccc4[nH]ccc34)c2=O)cc1 [Cpd 155, 6-[(2-Amino-4,6-dimethyl-pyridin-3-ylmethyl)-amino]-1-(1H-indol-4-ylmethyl)-3-(4-methoxy-benzyl)-1H-[1,3,5]triazine-2,4-dione] | 98% | 2 nM and 7 nM | 100%
30 | Nc1cccc(CNc2nc(=O)n(Cc3ccc(F)cc3)c(=O)n2Cc2ccc(OC(F)F)cc2)n1 [Cpd 156] | 70% | 3220 nM | 
31 | COc1ccc(Cn2c(=O)nc(NCc3c(C)cc(C)nc3N)n(Cc3ccc4c(c3)CCO4)c2=O)cc1 [Cpd 157] | 92% | 4 nM and 11 nM | 96%
32 | Cc1cc(C)c(CNc2nc(=O)n(Cc3ccc(-n4cccn4)cc3)c(=O)n2Cc2ccc(OC(F)F)cc2)cn1 [Cpd 158] | 62% | 3840 nM | 
33 | Cc1cc(C)c(CNc2nc(=O)n(Cc3ccc(-c4csnn4)cc3)c(=O)n2Cc2ccc(OC(F)F)cc2)cn1 [Cpd 168] | 68% | 1520 nM | 
34 | COc1ccc(Cn2c(CCc3cccnc3)cc(=O)n(Cc3ccc(OC)cc3)c2=O)cc1 [Cpd 169] | 78% | 226 nM and 973 nM | 86%
35 | COc1ccc(Cn2c(=O)nc(NCc3cccnc3N)n(Cc3ccc4cc[nH]c4c3)c2=O)cc1 [Cpd 170] | 96% | 32 nM | 
36 | COc1ccc(Cn2c(=O)nc(NCc3cccnc3N)n(Cc3cccc4cc[nH]c34)c2=O)cc1 [Cpd 171] | 46% | > 10000 nM | 
37 | CSc1ccc(Cn2c(=O)nc(NCc3c(C)cc(C)nc3N)n(Cc3ccc(OC(F)F)cc3)c2=O)cc1 [Cpd 173] | 97% | 207 nM | 
38 | Cc1cc(C)c(CNc2nc(=O)n(Cc3ccc4sccc4c3)c(=O)n2Cc2ccc(OC(F)F)cc2)c(N)n1 [Cpd 174] | 87% | 290 nM | 
39 | Cc1cc(C)c(CNc2nc(=O)n(Cc3ccc4occc4c3)c(=O)n2Cc2ccc(OC(F)F)cc2)c(N)n1 [Cpd 175] | 96% | 57 nM and 93 nM | 99%
40 | Cc1cc(C)c(CNc2nc(=O)n(Cc3ccc4c(c3)CCO4)c(=O)n2Cc2ccc(OC(F)F)cc2)c(N)n1 [Cpd 176] | 96% | 23 nM and 48 nM and 130 nM | 98%
41 | COc1ccc(Cn2c(CCc3ccncc3)cc(=O)n(Cc3ccc(OC)cc3)c2=O)cc1 [Cpd 183] | 68% | 2460 nM | 
42 | COc1ccc(Cn2c(C=Cc3ccncc3)cc(=O)n(Cc3ccc(OC)cc3)c2=O)cc1 [Cpd 184, 1,3-Bis-(4-methoxy-benzyl)-6-(2-pyridin-4-yl-vinyl)-1H-pyrimidine-2,4-dione] | 65% | 2690 nM | 
43 | Cc1cc(C)c(CNc2nc(=O)n(Cc3ccc4c(c3)CCO4)c(=O)n2Cc2ccc3c(c2)CCO3)c(N)n1 [Cpd 185, 6-[(2-Amino-4,6-dimethyl-pyridin-3-ylmethyl)-amino]-1,3-bis-(2,3-dihydro-benzofuran-5-ylmethyl)-1H-[1,3,5]triazine-2,4-dione] | 92% | 15 nM and 80 nM and 118 nM | 94% and 98%
44 | Cc1cc(C)c(CNc2nc(=O)n(Cc3ccc4occc4c3)c(=O)n2Cc2ccc3c(c2)CCO3)c(N)n1 [Cpd 186] | 99% | 74 nM and 97 nM | 100%
45 | COc1ccc(Cn2c(CCc3ccccn3)cc(=O)n(Cc3ccc(OC)cc3)c2=O)cc1 [Cpd 187] | 41% | > 10000 nM | 
46 | COc1ccc(Cn2c(NCc3cccn4ccnc34)nc(=O)n(Cc3ccc(OC)cc3)c2=O)cc1 [Cpd 188, 6-[(Imidazo[1,2-a]pyridin-8-ylmethyl)-amino]-1,3-bis-(4-methoxy-benzyl)-1H-[1,3,5]triazine-2,4-dione] | 66% | 579 nM | 
47 | COc1ccc(Cn2c(CCc3cccnc3C(N)=O)cc(=O)n(Cc3ccc(OC)cc3)c2=O)cc1 [Cpd 189] | 38% | > 10000 nM | 
48 | COc1ccc(Cn2c(OCc3cccnc3N)cc(=O)n(Cc3ccc(OC)cc3)c2=O)cc1 [Cpd 190] | 79% | 502 nM | 
49 | COc1ccc(Cn2c(CCc3cccnc3N)cc(=O)n(Cc3ccc(OC)cc3)c2=O)cc1 [Cpd 199, 6-[2-(2-Amino-pyridin-3-yl)-ethyl]-1,3-bis-(4-methoxy-benzyl)-1H-pyrimidine-2,4-dione] | 92% | 169 nM and 691 nM | 95%
50 | COc1ccc(Cn2c(=O)nc(NCc3cccnc3N)n(Cc3ccc(OC)cc3OC)c2=O)cc1 [Cpd 200] | 87% | 304 nM | 
51 | COc1ccc(Cn2c(OCc3c(C)cc(C)nc3N)cc(=O)n(Cc3ccc(OC)cc3)c2=O)cc1 [Cpd 202] | 70% | 830 nM | 
